Target: Serine/threonine-protein kinase ATR (Homo sapiens, UniProt Q13535)
Experiment: Inhibition of ATR (unknown origin)

Serine/threonine-protein kinase ATR, sequence (Q13535 whole entry): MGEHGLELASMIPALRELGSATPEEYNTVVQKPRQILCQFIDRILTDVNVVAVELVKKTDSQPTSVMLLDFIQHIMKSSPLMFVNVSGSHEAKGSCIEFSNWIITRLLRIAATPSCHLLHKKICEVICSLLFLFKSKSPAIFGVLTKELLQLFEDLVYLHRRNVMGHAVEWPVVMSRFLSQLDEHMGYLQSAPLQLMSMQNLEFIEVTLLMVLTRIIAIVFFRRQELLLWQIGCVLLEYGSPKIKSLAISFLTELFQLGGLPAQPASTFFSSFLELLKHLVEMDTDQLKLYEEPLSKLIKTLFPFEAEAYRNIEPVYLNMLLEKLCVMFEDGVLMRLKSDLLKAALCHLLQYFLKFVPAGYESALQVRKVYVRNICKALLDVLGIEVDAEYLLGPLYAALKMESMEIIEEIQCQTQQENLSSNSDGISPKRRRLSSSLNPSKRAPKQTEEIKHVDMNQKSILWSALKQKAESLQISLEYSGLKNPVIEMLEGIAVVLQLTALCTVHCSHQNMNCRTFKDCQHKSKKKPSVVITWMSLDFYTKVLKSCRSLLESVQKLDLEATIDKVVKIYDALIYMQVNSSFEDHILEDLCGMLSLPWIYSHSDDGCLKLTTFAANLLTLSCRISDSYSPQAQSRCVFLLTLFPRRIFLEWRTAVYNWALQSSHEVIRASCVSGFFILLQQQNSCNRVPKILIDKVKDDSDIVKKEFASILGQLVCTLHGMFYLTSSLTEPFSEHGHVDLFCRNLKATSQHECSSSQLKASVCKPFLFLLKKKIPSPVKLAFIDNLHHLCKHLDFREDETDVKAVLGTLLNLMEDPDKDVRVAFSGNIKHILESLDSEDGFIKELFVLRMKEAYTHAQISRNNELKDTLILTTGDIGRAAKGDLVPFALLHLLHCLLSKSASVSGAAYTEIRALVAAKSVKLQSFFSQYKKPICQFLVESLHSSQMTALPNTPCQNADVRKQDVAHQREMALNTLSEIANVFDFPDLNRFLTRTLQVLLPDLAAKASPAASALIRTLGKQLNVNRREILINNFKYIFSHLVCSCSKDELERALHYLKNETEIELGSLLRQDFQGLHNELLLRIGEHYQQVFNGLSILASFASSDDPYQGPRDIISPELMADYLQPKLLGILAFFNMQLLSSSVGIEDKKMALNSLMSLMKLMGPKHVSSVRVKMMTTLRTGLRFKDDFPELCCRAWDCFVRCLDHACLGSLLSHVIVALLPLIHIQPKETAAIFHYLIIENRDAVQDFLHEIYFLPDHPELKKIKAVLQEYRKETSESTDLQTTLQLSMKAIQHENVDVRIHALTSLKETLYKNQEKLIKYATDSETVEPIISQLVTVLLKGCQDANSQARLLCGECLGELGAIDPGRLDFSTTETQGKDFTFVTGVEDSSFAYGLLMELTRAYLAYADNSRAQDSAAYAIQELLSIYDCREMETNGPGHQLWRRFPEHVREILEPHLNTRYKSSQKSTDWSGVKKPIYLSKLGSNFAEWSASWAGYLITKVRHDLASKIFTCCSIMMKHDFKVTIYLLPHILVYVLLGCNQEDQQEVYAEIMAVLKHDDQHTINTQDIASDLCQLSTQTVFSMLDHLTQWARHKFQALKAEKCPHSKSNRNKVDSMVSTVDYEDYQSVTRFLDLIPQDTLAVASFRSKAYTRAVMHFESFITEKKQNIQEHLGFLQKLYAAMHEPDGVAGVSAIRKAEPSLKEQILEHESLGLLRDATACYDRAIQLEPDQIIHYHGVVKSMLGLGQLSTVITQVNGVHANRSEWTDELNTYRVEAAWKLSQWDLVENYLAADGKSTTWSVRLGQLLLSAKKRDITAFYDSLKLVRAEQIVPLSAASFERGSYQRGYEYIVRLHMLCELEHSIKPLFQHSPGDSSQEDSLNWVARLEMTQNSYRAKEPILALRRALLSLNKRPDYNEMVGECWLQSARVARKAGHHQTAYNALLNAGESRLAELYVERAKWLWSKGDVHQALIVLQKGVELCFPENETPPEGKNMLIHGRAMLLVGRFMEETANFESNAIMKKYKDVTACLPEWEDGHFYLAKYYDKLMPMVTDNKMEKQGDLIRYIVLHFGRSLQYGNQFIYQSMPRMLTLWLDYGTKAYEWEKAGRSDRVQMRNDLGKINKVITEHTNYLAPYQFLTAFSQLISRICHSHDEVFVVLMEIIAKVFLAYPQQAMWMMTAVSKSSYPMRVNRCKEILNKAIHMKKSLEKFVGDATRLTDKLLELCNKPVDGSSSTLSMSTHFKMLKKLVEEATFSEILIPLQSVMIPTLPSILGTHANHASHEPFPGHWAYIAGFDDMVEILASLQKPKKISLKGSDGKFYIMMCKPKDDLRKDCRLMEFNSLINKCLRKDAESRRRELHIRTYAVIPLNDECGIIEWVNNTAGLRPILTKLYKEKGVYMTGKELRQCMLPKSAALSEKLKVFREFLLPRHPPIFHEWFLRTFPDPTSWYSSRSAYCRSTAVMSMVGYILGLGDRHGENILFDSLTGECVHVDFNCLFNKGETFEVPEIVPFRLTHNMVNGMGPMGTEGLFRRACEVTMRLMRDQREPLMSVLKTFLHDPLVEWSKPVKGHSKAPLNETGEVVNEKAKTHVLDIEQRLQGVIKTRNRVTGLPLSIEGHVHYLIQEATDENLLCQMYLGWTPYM

Question: `CNCc1ccc(C2=NOC(c3nc(-c4ccc(S(=O)(=O)C(C)C)cc4)cnc3N)C2)cc1` (configuration not stated) was tested. Which Ki did it give?
Answer: 16 nM

Question: Which Ki does the source give for `CC(C)S(=O)(=O)c1ccc(-c2cnc(N)c(C3CC(c4ccccc4)=NO3)n2)cc1` (configuration not stated) here?
Answer: 90 nM

From ChEMBL document CHEMBL2406961, “Inhibitors of ATR Kinase for Treatment of Cancer” (ACS Med Chem Lett, 2013)
